Measured values published in US9409952B2, “Peptide-compound cyclization method” (Chugai Seiyaku Kabushiki Kaisha, priority 2011, dated 2016).
Read-outs that look alike come from different tables or passages of the source. Starred links: 1 amine or outer side, 2 acyl side, 3 side chain; linkers in the order of their positions; H or OH if unused. Positions of bridges follow the written chain, without caps; N, C: chain ends. Non-standard residues stand in square brackets, D forms with d. Residues, ends and D or L forms follow the SMILES beside them. *: point of attachment. Phe(3-(CH2)4CO) = O=C([C@H](Cc1cccc(CCCCC(=O)[*:3])c1)N[*:1])[*:2]; Phe(4-CF3) = N[C@@H](Cc1ccc(C(F)(F)F)cc1)C(=O)O; NMeF = CN[C@@H](Cc1ccccc1)C(=O)O; NMeI = CC[C@H](C)[C@H](NC)C(=O)O; NMeβAla = CN(CCC(=O)[*:2])[*:1]; NMeL = CN[C@@H](CC(C)C)C(=O)O; NMeV = CN[C@H](C(=O)O)C(C)C; NMeA = CN[C@@H](C)C(=O)O; Piperidide = C1CCN(*)CC1; dNMeA = CN[C@H](C)C(=O)O; β3hA = C[C@H](N)CC(=O)O; Sar = CNCC(=O)O; tBu = CC(C)(C)*

Tests used:
[1] = Metabolic stability in human hepatic microsome; type: in vitro ADME; settings: microsomes
[2] = PAMPA (parallel artificial membrane permeability assay); type: in vitro ADME; settings: PAMPA
Method in brief: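 Artificial membrane was 10% (w/v) egg lecithin plus 0.5% (w/v) cholesterol in dodecane on a PVDF filter. A 10 mM DMSO stock was added at 0.5% (v/v) to donor buffer (50 mM MOPSO, pH 6.5, 5.0% glycocholic acid). After 18 h at 37 °C, LC/MS or LC/UV gave donor and acceptor levels for Pe.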

[3] = pH 7.4, human hepatic microsome, NADPH(+), read-out: CL NADPH(+)
[4] = membrane permeation rate (Pe), 50 mM MOPSO buffer pH 6.5 with 5.0% glycocholic acid, 37° C., 18 hours, read-out: iPAMPA Pe

Compound	microsomal CLint at 1 uM [1, 3]	Papp at 18 hours, 50 µM [2, 4]	microsomal CLint at 1 uM ([1]; human, pH 7.4, CL NADPH(+))	Papp at 18 hours, 50 µM ([2]; pH 6.5)
CC[C@H](C)[C@H](NC(=O)[C@H](CC(C)C)N(C)C(=O)CN(C)C(=O)[C@@H]1CC(=O)N[C@H](C(C)C)C(=O)N[C@@H](C)C(=O)N[C@@H]([C@@H](C)O)C(=O)N(C)[C@@H](C)C(=O)N[C@@H](Cc2ccccc2)C(=O)N(C)[C@@H](CC(C)C)C(=O)N(C)[C@@H](Cc2ccccc2)C(=O)N(C)[C@@H](CC(C)C)C(=O)N1)C(=O)N1CCCCC1 [DP-576] ([dV]AT[NMeA]F[NMeL][NMeF][NMeL]D[Sar][NMeL]I-Piperidide; lactam N-9)	17 µL/min/mg	15 ×10⁻⁶ cm/s	–	–
CC[C@H](C)[C@H]1C(=O)N[C@@H](CC(C)C)C(=O)N(C)[C@@H](CC(C)C)C(=O)N[C@@H](COC(C)(C)C)C(=O)N(C)[C@@H](CC(C)C)C(=O)N[C@@H](C)CC(=O)N(C)CCC(=O)N[C@@H](Cc2ccccc2)C(=O)N(C)[C@@H](Cc2ccccc2)C(=O)N(C)[C@@H](CC(C)C)C(=O)N[C@@H]([C@@H](C)O)C(=O)N(C)[C@@H](C)C(=O)N1C [DP-758] (cyclo(F[NMeF][NMeL]T[NMeA][NMeI]L[NMeL]S(tBu)[NMeL][β3hA][NMeβAla]))	–	–	59 µL/min/mg	24 ×10⁻⁶ cm/s
CC[C@H](C)[C@@H]1NC(=O)[C@H](CC(C)C)N(C)C(=O)[C@H](CC(C)C)N(C)C(=O)[C@H](C)NC(=O)[C@H](CC(C)C)N(C)C(=O)[C@H](Cc2ccc(C(F)(F)F)cc2)NC(=O)[C@H]([C@@H](C)O)NC(=O)[C@H](CC(C)C)N(C)C(=O)[C@H](CC(C)C)N(C)C(=O)[C@H](C)N(C)C(=O)C[C@H](C)NC1=O [DP-776] (cyclo(A[NMeL][NMeL]I[β3hA][NMeA][NMeL][NMeL]T[Phe(4-CF3)][NMeL]))	–	–	44 µL/min/mg	18 ×10⁻⁶ cm/s
CC[C@H](C)[C@@H]1NC(=O)[C@@H](C)NC(=O)C[C@@H](C(=O)N(C)[C@@H](Cc2ccccc2)C(=O)N[C@@H](C)C(=O)N2CCCCC2)NC(=O)[C@H](Cc2ccccc2)N(C)C(=O)[C@H](C)NC(=O)[C@H](CC(C)C)N(C)C(=O)[C@H](C)N(C)C(=O)[C@H]([C@@H](C)O)NC(=O)[C@H](C(C)C)N(C)C(=O)[C@H](C)N(C)C1=O [DP-491] ([dA]I[NMeA][NMeV]T[NMeA][NMeL]A[NMeF]D[NMeF]A-Piperidide; lactam N-10)	39 µL/min/mg	18 ×10⁻⁶ cm/s	–	–
CC[C@H](C)[C@@H]1NC(=O)[C@H](CC(C)C)N(C)C(=O)CN(C)C(=O)[C@H]([C@@H](C)O)NC(=O)[C@H](C)N(C)C(=O)[C@H](Cc2ccccc2)NC(=O)[C@H](CC(C)C)N(C)C(=O)[C@H](C)N(C)C(=O)C[C@@H](C(=O)N(C)[C@@H](Cc2ccccc2)C(=O)N(C)[C@@H](Cc2ccccc2)C(=O)N[C@@H](C)C(=O)N2CCCCC2)NC(=O)[C@H](C(C)C)N(C)C1=O [DP-459] ([NMeA][NMeL]F[NMeA]T[Sar][NMeL]I[NMeV]D[NMeF][NMeF]A-Piperidide; lactam N-10)	143 µL/min/mg	19 ×10⁻⁶ cm/s	–	–
CC[C@H](C)[C@@H]1NC(=O)CN(C)C(=O)[C@H](Cc2ccccc2)N(C)C(=O)[C@H](C)N(C)C(=O)[C@H]([C@@H](C)O)NC(=O)[C@H](CC(C)C)N(C)C(=O)[C@@H](C)N(C)C(=O)C[C@@H](C(=O)N(C)[C@@H](Cc2ccccc2)C(=O)N[C@@H](C)C(=O)N2CCCCC2)NC(=O)[C@H](C(C)C)N(C)C(=O)[C@H](CC(C)C)N(C)C1=O [DP-371] ([dNMeA][NMeL]T[NMeA][NMeF][Sar]I[NMeL][NMeV]D[NMeF]A-Piperidide; lactam N-10)	31 µL/min/mg	34 ×10⁻⁶ cm/s	–	–
CC[C@H](C)[C@H]1C(=O)NCC(=O)N[C@@H](C)CC(=O)N(C)[C@H](C)C(=O)N[C@@H](Cc2ccccc2)C(=O)N(C)[C@@H](CC(C)C)C(=O)N[C@@H](COC(C)(C)C)C(=O)N[C@@H](Cc2ccccc2)C(=O)N2CCC[C@H]2C(=O)N[C@@H]([C@@H](C)O)C(=O)N[C@@H](CC(C)C)C(=O)N(C)[C@@H](C)C(=O)N1C [DP-754] (cyclo(F[NMeL]S(tBu)FPTL[NMeA][NMeI]G[β3hA][dNMeA]))	–	–	41 µL/min/mg	32 ×10⁻⁶ cm/s
CC[C@H](C)[C@H]1C(=O)N[C@@H](CC(C)C)C(=O)N2CCC[C@H]2C(=O)N[C@@H]([C@@H](C)O)C(=O)N(C)[C@@H](C)C(=O)N[C@@H](Cc2ccccc2)C(=O)N[C@H](C(=O)N2CCCCC2)CC(=O)N(C)[C@@H](C)C(=O)N[C@@H](Cc2ccccc2)C(=O)N(C)[C@@H](CC(C)C)C(=O)N[C@@H](COC(C)(C)C)C(=O)NCC(=O)N1C [DP-57] ([NMeA]F[NMeL]S(tBu)G[NMeI]LPT[NMeA]FD-Piperidide; lactam N-12)	–	–	23 µL/min/mg	26 ×10⁻⁶ cm/s
CC[C@H](C)[C@@H]1NC(=O)[C@H](CC(C)C)NC(=O)[C@H](C)N(C)C(=O)C[C@@H](C(=O)N2CCCCC2)NC(=O)[C@H](CC(C)C)NC(=O)[C@H](Cc2ccccc2)NC(=O)[C@H](Cc2ccccc2)N(C)C(=O)[C@H](CC(C)C)NC(=O)[C@H]([C@@H](C)O)NC(=O)[C@H](Cc2ccccc2)NC1=O [DP-331] ([NMeA]LIFTL[NMeF]FLD-Piperidide; lactam N-10)	198 µL/min/mg	0.24 ×10⁻⁶ cm/s	–	–
CC(C)C[C@H]1C(=O)N[C@@H](COC(C)(C)C)C(=O)N[C@H](C(=O)N2CCCCC2)CC(=O)N(C)[C@H](C)C(=O)N(C)[C@@H](C)C(=O)N(C)[C@@H](Cc2ccccc2)C(=O)N(C)[C@@H](CC(C)C)C(=O)N[C@@H]([C@@H](C)O)C(=O)N(C)[C@@H](C)C(=O)N1C [DP-160] ([dNMeA][NMeA][NMeF][NMeL]T[NMeA][NMeL]S(tBu)D-Piperidide; lactam N-9)	68 µL/min/mg	37 ×10⁻⁶ cm/s	–	–
CC(C)C[C@@H]1NC(=O)[C@H](C)N(C)C(=O)[C@H]([C@@H](C)O)NC(=O)[C@H](Cc2ccccc2)N(C)C(=O)CNC(=O)[C@H](C(C)C)N(C)C(=O)[C@H](C(C)C)NC(=O)[C@H](C)N(C)C(=O)[C@H](Cc2ccccc2)NC(=O)[C@H](C)N(C)C(=O)[C@@H](C)N(C)C(=O)C[C@H](C)NC1=O [DP-753] (cyclo(F[NMeA]V[NMeV]G[NMeF]T[NMeA]L[β3hA][dNMeA][NMeA]))	35 µL/min/mg	10 ×10⁻⁶ cm/s	–	–
CC[C@H](C)[C@@H]1NC(=O)[C@H](Cc2ccccc2)N(C)C(=O)[C@H](Cc2ccccc2)NC(=O)[C@H](CC(C)C)N(C)C(=O)[C@H](C(C)C)NC(=O)[C@H](CC(C)C)NC(=O)[C@H](C)N(C)C(=O)CNC(=O)CCCCc2cccc(c2)C[C@@H](C(=O)N2CCCCC2)NC(=O)[C@H]([C@@H](C)O)NC(=O)[C@H](CC(C)C)NC(=O)[C@H](C)N(C)C1=O [DP-893] (G[NMeA]LV[NMeL]F[NMeF]I[NMeA]LT[Phe(3-(CH2)4CO)]-Piperidide; lactam N-12)	86 µL/min/mg	5.3 ×10⁻⁶ cm/s	–	–
CC(C)C[C@@H]1NC(=O)[C@H](Cc2ccccc2)N(C)C(=O)[C@H]([C@@H](C)O)NC(=O)[C@H](Cc2ccccc2)N(C)C(=O)[C@H](C)N(C)C(=O)[C@H](C)NC(=O)C[C@@H](C(=O)N2CCCCC2)NC1=O [DP-539] (A[NMeA][NMeF]T[NMeF]LD-Piperidide; lactam N-7)	260 µL/min/mg	20 ×10⁻⁶ cm/s	–	–
CC[C@H](C)[C@H]1C(=O)N(C)[C@@H](CC(C)C)C(=O)N[C@@H](Cc2ccccc2)C(=O)N[C@@H]([C@@H](C)O)C(=O)N[C@@H](CC(C)C)C(=O)N(C)[C@@H](Cc2ccccc2)C(=O)N(C)[C@@H](C(C)C)C(=O)N[C@H](C(=O)N(C)CC(=O)N[C@@H](C)C(=O)N2CCCCC2)CC(=O)N[C@H](C)C(=O)N[C@@H](C)C(=O)N1C [DP-672] ([dA]A[NMeI][NMeL]FTL[NMeF][NMeV]D[Sar]A-Piperidide; lactam N-10)	72 µL/min/mg	13 ×10⁻⁶ cm/s	–	–
CC[C@H](C)[C@@H]1NC(=O)[C@H](CC(C)C)NC(=O)[C@H](Cc2ccccc2)NC(=O)[C@H](CC(C)C)NC(=O)CN(C)C(=O)[C@H](Cc2ccccc2)NC(=O)[C@H](C)NC(=O)C[C@@H](C(=O)N2CCCCC2)NC(=O)[C@H](Cc2ccccc2)NC(=O)[C@H]([C@@H](C)O)NC1=O [DP-330] (AF[Sar]LFLITFD-Piperidide; lactam N-10)	61 µL/min/mg	9.9 ×10⁻⁶ cm/s	–	–
CC[C@H](C)[C@@H]1NC(=O)[C@H](C)N(C)C(=O)[C@H](CC(C)C)N(C)C(=O)CN(C)C(=O)[C@H]([C@@H](C)O)NC(=O)[C@H](C(C)C)N(C)C(=O)[C@H](C)N(C)C(=O)[C@H](Cc2ccccc2)NC(=O)[C@@H](C)NC(=O)C[C@@H](C(=O)N(C)[C@@H](Cc2ccccc2)C(=O)N(C)[C@@H](Cc2ccccc2)C(=O)N[C@@H](C)C(=O)N2CCCCC2)NC1=O [DP-502] ([dA]F[NMeA][NMeV]T[Sar][NMeL][NMeA]ID[NMeF][NMeF]A-Piperidide; lactam N-10)	19 µL/min/mg	17 ×10⁻⁶ cm/s	–	–
CC(C)C[C@H]1C(=O)N[C@@H](C(C)C)C(=O)N(C)[C@@H](C)C(=O)N[C@@H]([C@@H](C)O)C(=O)N(C)[C@@H](C)C(=O)N[C@H](C(=O)N2CCCCC2)CC(=O)N(C)CCC(=O)N(C)[C@@H](C)C(=O)N(C)[C@@H](Cc2ccccc2)C(=O)N[C@@H](C)C(=O)N(C)[C@@H](CC(C)C)C(=O)N(C)CC(=O)N1C [DP-511] ([NMeβAla][NMeA][NMeF]A[NMeL][Sar][NMeL]V[NMeA]T[NMeA]D-Piperidide; lactam N-12)	15 µL/min/mg	1.1 ×10⁻⁶ cm/s	–	–
